Data on three molecules can be found in paper PMC12675537, “Molecular basis for multidrug efflux by an anaerobic-associated RND transporter” (Nature Communications, 2025).

In data set [1] the target is T1, MdtF (Escherichia coli, UniProt P37637, V610F).
T1 construct: MdtF-6xHis (C-terminal His tag) in SMALP native-lipid nanodiscs; homotrimer
T1 sequence (P37637 1-1037 V610F): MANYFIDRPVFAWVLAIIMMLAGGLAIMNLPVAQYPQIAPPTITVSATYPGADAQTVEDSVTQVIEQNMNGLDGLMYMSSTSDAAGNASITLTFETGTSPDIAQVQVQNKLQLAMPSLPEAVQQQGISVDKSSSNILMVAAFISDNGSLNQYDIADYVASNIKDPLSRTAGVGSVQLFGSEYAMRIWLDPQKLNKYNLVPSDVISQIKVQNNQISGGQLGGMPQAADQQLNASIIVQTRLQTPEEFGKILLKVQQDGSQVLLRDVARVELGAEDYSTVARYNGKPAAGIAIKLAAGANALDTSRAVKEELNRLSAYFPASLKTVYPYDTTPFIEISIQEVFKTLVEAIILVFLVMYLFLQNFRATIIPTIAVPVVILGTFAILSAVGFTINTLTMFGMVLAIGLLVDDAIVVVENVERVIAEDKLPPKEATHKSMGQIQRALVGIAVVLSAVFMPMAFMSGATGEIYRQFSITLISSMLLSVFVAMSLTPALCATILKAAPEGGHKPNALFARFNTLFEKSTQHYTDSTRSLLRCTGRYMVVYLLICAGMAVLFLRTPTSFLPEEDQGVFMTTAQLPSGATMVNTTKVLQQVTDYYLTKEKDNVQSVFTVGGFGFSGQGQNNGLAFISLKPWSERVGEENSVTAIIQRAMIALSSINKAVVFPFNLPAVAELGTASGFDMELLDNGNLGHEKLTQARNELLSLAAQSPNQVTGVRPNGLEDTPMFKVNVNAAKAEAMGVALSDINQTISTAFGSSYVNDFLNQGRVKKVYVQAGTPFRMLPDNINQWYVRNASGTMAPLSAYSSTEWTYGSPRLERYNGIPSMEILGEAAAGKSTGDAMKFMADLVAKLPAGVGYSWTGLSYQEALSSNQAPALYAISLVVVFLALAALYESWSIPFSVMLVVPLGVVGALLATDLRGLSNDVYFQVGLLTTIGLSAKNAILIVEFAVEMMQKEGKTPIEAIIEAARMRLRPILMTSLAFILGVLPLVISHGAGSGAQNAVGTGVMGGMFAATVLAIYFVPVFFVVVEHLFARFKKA
Description: fluorescence polarisation Kd; thermal stabilisation (CD, DSC, nanoDSF). The class given is binding. For orientation: Polarisation of emitted light reports the rotation of a fluorescent probe.

Data set [2] addresses T2, MdtF (Escherichia coli, UniProt P37637).
T2 construct: MdtF-6xHis (C-terminal His tag) in SMALP native-lipid nanodiscs; homotrimer
Description: fluorescence polarisation; thermal stabilisation (CD, DSC, nanoDSF). It is filed as binding.

The data set “cryo-EM structure” concerns the molecule itself. Description: cryo-EM structure.

Where a chain is given by its changes, count along the chain named. Names and notes keep the numbering of the source.

What is called Kd is the concentration at which binding is half-saturated. Turning to `CC/N=c1\cc2oc3cc(NCC)c(C)cc3c(-c3ccccc3C(=O)OCC)c-2cc1C` [R6G, Rhodamine 6G], the equilibrium dissociation constant (Kd) at MdtF [1] was 720 ± 90 nM; at MdtF [2], 390 ± 90 nM.

B1: Escherichia coli multidrug transporter MdtF, wild type (MdtF-6xHis) in SMA lipid particles (natural protein)
chain: T1 sequence (P37637 1-1037 V610F)
notes: also called MdtF^WT; apo-MdtF^WT; source: E. coli C43(DE3) ΔacrAB, extracted from membranes with SMA 2000 into SMALPs, purified (Ni-NTA, SEC)
One may read the stoichiometry N as a count of units in the complex or per binding partner. Turning to B1, in the data set “cryo-EM structure”, the “stoichiometry N” value worked out at 3.

B2: Escherichia coli multidrug transporter MdtF with the single-point mutation V610F (MdtF-6xHis) in SMA lipid particles (natural protein)
chain: T1 sequence (P37637 1-1037 V610F) with V610F
notes: also called MdtF^V610F; apo-MdtF^V610F; source: E. coli C43(DE3) ΔacrAB, extracted from membranes with SMA 2000 into SMALPs, purified (Ni-NTA, SEC)
Regarding B2, in “cryo-EM structure”, the binding result is “binds”.
